According to the supplement of paper PMC10307832:

compound: COc1cc2nc(N3CCCN(C)CC3)nc(NC3CCN(Cc4ccccc4)CC3)c2cc1OC + Nc1ncn([C@H]2C[C@H](O)[C@@H](CO)O2)c(=O)n1 [Decitabine] (partner 2 µM); experiment: relative viability (nuclei count vs DMSO), 5 days (fraction); higher = more cells survive; settings: first compound 0.2 µM
Outline: (§1)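 Lung cancer cell lines, seeded in 1536-well plates, were treated the following day by pin tool with a single drug or with five library-drug doses (not always all listed) in √10 steps on top of a fixed anchor-drug dose. Cells were fixed and nuclei stained in one step after 5 days, and nuclei were counted. Relative viability is the nuclei count for treated wells divided by that for vehicle wells, reported as medians of duplicate plates.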

Cell Line	relative viability
NCI-H522	0.623
LU99A	0.863
BEN	0.765
HARA	0.548
SW 900	0.448
NCI-H1395	0.712
NCI-H1793	0.499
NCI-H1944	0.465
ABC-1	0.969
NCI-H358	0.203

same assay, conditions: first compound 0.6325 µM

Cell Line	relative viability
NCI-H2342	0.785
NCI-H727	1.02
NCI-H1650	0.399
NCI-H1993	0.522
SW 1573	0.48
NCI-H838	0.466
LCLC-103H	0.794
NCI-H520	0.454
NCI-H2126	0.55
EMC-BAC-2	0.968
NCI-H2085	0.531
HCC-366	0.292
NCI-H1666	0.805
NCI-H596	0.934
LK-2	0.244
NCI-H2087	0.261
NCI-H1648	0.472
SK-MES-1	0.351
H3255	0.626

Cell Line	relative viability
COR-L23	0.477
COR-L 105	0.685
LOU-NH91	0.845
ChaGo-K-1	0.506
NCI-H2170	0.454
NCI-H2405	0.745
HOP-62	0.201
HCC-44	0.855
A549	0.238
NCI-H522	0.694
LU99A	0.857
BEN	0.743
HARA	0.556
SW 900	0.501
NCI-H1395	0.71
NCI-H1793	0.476
NCI-H1944	0.505
ABC-1	1.09
NCI-H358	0.2

same assay, conditions: first compound 2 µM

Cell Line	relative viability
NCI-H2342	0.716
NCI-H727	0.865
NCI-H1650	0.377
NCI-H1993	0.58
SW 1573	0.402
NCI-H838	0.508
LCLC-103H	0.777
NCI-H520	0.534
NCI-H2126	0.561
EMC-BAC-2	0.882
NCI-H2085	0.594
HCC-366	0.358
NCI-H1666	0.658
NCI-H596	0.958
LK-2	0.359
NCI-H2087	0.219
SK-MES-1	0.316
H3255	0.601
COR-L23	0.527

Cell Line	relative viability
COR-L 105	0.648
LOU-NH91	0.853
ChaGo-K-1	0.49
NCI-H2170	0.49
NCI-H2405	0.784
HOP-62	0.198
HCC-44	0.936
A549	0.263
NCI-H522	0.588
LU99A	0.893
BEN	0.914
HARA	0.697
SW 900	0.412
NCI-H1395	0.743
NCI-H1793	0.465
NCI-H1944	0.391
ABC-1	0.929
NCI-H358	0.2

same assay, conditions: first compound 6.325 µM

Cell Line	relative viability
NCI-H2342	0.662
NCI-H727	0.726
NCI-H1650	0.353
NCI-H1993	0.568
SW 1573	0.182
NCI-H838	0.474
LCLC-103H	0.701
NCI-H520	0.214
NCI-H2126	0.567
EMC-BAC-2	0.915
NCI-H2085	0.559
HCC-366	0.309
NCI-H1666	0.729
NCI-H596	1.03
LK-2	0.326
NCI-H2087	0.212
NCI-H1648	0.507
SK-MES-1	0.101
H3255	0.588

Cell Line	relative viability
COR-L23	0.471
COR-L 105	0.492
LOU-NH91	0.808
ChaGo-K-1	0.504
NCI-H2170	0.46
NCI-H2405	0.729
HOP-62	0.216
HCC-44	0.944
NCI-H522	0.698
LU99A	0.811
BEN	0.699
HARA	0.442
SW 900	0.373
NCI-H1395	0.706
NCI-H1793	0.571
NCI-H1944	0.455
ABC-1	1.19
NCI-H358	0.158

compound: Cc1cc([C@@H](C)Nc2ccccc2C(=O)O)c2nc(N3CCOCC3)cc(=O)n2c1 [AZD6482] + C[C@@H](Oc1cc(-c2cnn(C3CCNCC3)c2)cnc1N)c1c(Cl)ccc(F)c1Cl [Crizotinib] (partner 1 µM); experiment: as above; settings: first compound 0.08 µM
Outline: as §1

Cell Line	relative viability
NCI-H727	0.684
NCI-H1650	0.907
EBC-1	0.19
NCI-H1703	0.583
NCI-H1993	0.671
SW 1573	0.781
NCI-H838	0.593
LCLC-103H	0.909
NCI-H520	0.623
NCI-H2126	0.954
EMC-BAC-2	0.66
NCI-H2085	0.818
Calu-6	0.701
HCC-366	0.304
NCI-H1666	0.84
NCI-H596	0.792
LK-2	0.24

Cell Line	relative viability
NCI-H2087	0.805
SK-MES-1	0.854
H3255	0.869
COR-L23	0.467
COR-L 105	0.8
IA-LM	0.968
LOU-NH91	0.709
ChaGo-K-1	1.11
NCI-H2170	1.11
NCI-H2405	0.577
HOP-62	1.07
HCC-44	0.671
A549	0.73
LU99A	0.609
BEN	0.876
HARA	0.857
NCI-H1299	0.956
